In publication PMC11344480 (ACS infectious diseases, 2021):
In brackets after ≈: the same amount, converted by molar mass.

How the values were obtained:
C. albicans [1] = settings: prior work of the laboratory; cited from earlier work
C. albicans AHAS = settings: cited from earlier work
C. tropicalis = assay: Modified MIC50 assay; assay type: cell-based, C. tropicalis MYA3404; settings: Candida tropicalis, 24 h
C. dubliniensis = assay: Modified MIC50 assay; assay type: cell-based, C. dubliniensis CD36; settings: Candida dubliniensis, 24 h
C. albicans [2] = settings: mice, prophylactic administration; cited from earlier work
Candida species = settings: via targeting of AHAS; cited from earlier work
C. albicans [3] = assay: Modified MIC50 assay; assay type: cell-based, C. albicans SC5314; settings: 24 h
NLRP3 inflammasome = NLRP3 inflammasome (Homo sapiens, UniProt Q96P20); assay type: cell-based
[4] = XTT reduction viability assay; assay type: cell-based; settings: human
C. auris = assay: Modified MIC50 assay; assay type: cell-based; settings: Candidozyma auris, 24 h

NLRP3 inflammasome, sequence (Q96P20 whole entry): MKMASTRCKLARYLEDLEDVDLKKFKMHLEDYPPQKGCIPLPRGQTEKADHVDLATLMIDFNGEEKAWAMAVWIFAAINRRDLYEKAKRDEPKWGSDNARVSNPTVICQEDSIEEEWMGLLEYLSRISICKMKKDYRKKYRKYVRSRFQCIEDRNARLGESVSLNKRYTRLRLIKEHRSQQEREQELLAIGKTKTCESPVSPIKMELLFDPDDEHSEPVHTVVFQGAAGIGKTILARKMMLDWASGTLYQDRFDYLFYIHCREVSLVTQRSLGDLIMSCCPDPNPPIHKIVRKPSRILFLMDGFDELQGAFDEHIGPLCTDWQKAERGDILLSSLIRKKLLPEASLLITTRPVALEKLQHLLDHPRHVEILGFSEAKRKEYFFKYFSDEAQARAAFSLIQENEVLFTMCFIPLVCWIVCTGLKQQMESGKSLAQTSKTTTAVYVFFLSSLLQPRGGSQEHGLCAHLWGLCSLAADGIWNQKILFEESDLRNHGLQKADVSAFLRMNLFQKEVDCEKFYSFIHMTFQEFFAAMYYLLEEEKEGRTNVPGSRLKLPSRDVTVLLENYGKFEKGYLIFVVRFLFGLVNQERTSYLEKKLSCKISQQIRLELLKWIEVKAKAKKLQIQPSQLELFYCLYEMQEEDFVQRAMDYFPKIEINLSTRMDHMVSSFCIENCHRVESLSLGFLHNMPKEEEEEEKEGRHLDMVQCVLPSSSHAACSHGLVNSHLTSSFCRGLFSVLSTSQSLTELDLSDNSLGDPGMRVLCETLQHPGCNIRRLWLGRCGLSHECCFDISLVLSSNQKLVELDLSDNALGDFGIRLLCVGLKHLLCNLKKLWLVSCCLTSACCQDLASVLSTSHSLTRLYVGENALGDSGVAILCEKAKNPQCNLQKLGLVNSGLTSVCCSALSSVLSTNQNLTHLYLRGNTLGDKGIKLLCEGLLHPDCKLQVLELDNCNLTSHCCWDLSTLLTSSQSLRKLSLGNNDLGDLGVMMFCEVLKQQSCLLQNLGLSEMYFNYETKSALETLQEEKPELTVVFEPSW

Compound: COc1ccc(Cl)cc1C(=O)NCCc1ccc(S(=O)(=O)NC(=O)NC2CCCCC2)cc1 [glyburide]
- preventing fungal growth or filamentation (C. albicans [1]): completely ineffective

Compound: CCOC(=O)c1ccccc1S(=O)(=O)NC(=O)Nc1nc(Cl)cc(OC)n1 [Compound 13, chlorimuron ethyl]
- inhibition of purified C. albicans AHAS protein (C. albicans AHAS): potent inhibitors
- MIC50 (C. tropicalis): 21.1 ± 3 µM (≈ 8.75 µg/mL)
- MIC50 (C. dubliniensis): 1.3 ± 0.7 µM (≈ 0.539 µg/mL)
- fungal burden in the kidney, spleen, liver, and lungs (C. albicans [2]): significantly reduced fungal burden
- protection against disseminated C. albicans infection (C. albicans [2]): provided protection
- growth of the Candida species (Candida species): effective at reducing growth
- MIC50 (C. albicans [3]; C. albicans, YNB, mean ± SD): 0.5 ± 0.2 µM (≈ 0.207 µg/mL)
- MIC50 (C. albicans [3]; Candida albicans): 0.5 µM (≈ 0.207 µg/mL)
- IC50 (NLRP3 inflammasome): > 50 µM
- viability at 5 h, 50 µM [4]: 103 ± 7.3%
- MIC50 (C. auris): 0.8 ± 0.3 µM (≈ 0.332 µg/mL)
